Data published in patent US20110257170A1, “4-MORPHOLINO-PYRIDO[3,2-D]PYRIMIDINES” (MERCK SERONO SA, priority 2008, published 2011).

Assays:
[1] = system: T1, Human recombinant GST-PI3K; experiment: PI3K lipid phosphorylation scintillation proximity assay (neomycin-coated SPA beads); format: biochemical; conditions: 120 min at room temperature, isoform not stated
T1 construct: fused on or other part: GST tag
From the text: The efficacy of compounds of the invention in inhibiting the PI3K induced-lipid phosphorylation may be tested in the following binding assay. The assay combines the scintillation proximity assay technology (SPA, Amersham) with the capacity of neomycin (a polycationic antibiotic) to bind phospholipids with high affinity and specificity. The Scintillation Proximity Assay is based on the properties of weakly emitting isotopes (such as ^3H, ^125I, ^33P). Coating SPA beads with neomycin allows the detection of phosphorylated lipid substrates after incubation with recombinant PI3K and radioactive ATP in the same well, by capturing the radioactive phospholipids to the SPA beads through their specific binding to neomycin. […] After precipitation of the neomycin-coated PVT SPA beads for 5 minutes at 1500×g, radioactive Ptdlns(3)P is quantified by scintillation counting in a Wallac MicroBeta™ plate counter. […]

melting point | IC50 [1] | Structure (SMILES)
212 to 213 °C (dec.) | – | COC(=O)c1cc(Cl)c2nc(Cl)nc(N3CCOCC3)c2n1 [Example E-1, Methyl 2,8-dichloro-4-morpholin-4-yl-pyrido[3,2-d]pyrimidine-6-carboxylate]
– | 8.61 µM | Cc1ccc2nc(Cl)nc(N3CCOCC3)c2n1 [Example E-34, 2-Chloro-6-methyl-4-morpholin-4-ylpyrido[3,2-d]pyrimidine]
